These results are taken from patent publication US11241453B2, “Arsenic compositions” (Eupharma Pty Ltd, priority 2016, dated 2022).

For data set [1] the following is noted: cited from earlier work.
The conditions of data set [2]: cited from earlier work. This is another data set of the same source.
The nature of data set [3]: Dissolution in near neutral solution at pH 6.5. It is filed as physicochemical. To be noted: for Time until capsule opens: pH 6.5, 150 mls, 37° C., stirred. On the procedure: Dissolution experiments were carried out on NaHAs2O4 at 2 different pH levels. Firstly, simulated gastric fluid (pH 1.24) was used, then a near neutral solution at pH 6.5. Prior to addition of the capsules, 150 mls of the dissolution solution was heated to 37° C. and the solution contained a spin bar at a speed of 2. The appropriate capsule was then added.

Data set [4] is classed as physicochemical.
Setting [5] is: gelatin capsule in 150 mL simulated gastric solution, approx. pH 1.2, 37° C.

Several values for one entry are separate records, joined by “and”; a condition that tells them apart may be missing. Equal values may be shown once. Read-outs that look alike come from different tables or passages of the source.

Regarding arsenic trioxide, the “Solubility (in words)” value in data set [1] (neutral pH) is reported as “only slightly soluble”. Besides, in data set [1] (physiological or acidic pH), the “Solubility in water (in words)” value is “only sparingly soluble”. In addition, the “Time required for complete dissolution” value in data set [2] (0.1 M NaOH) was 15 to 20 min. Besides, the “Dissolution (in words)” value in data set [2] (in vitro, strong stirring, low pH) is “very slow process”.

As for sodium diarsenic tetraoxide [NaHAs2O4], the “Time until capsule opens” value was 50 s and 45 s in data set [3] (1 mg capsule); 55 s and 50 s in data set [3] (10 mg capsule); 35 s and 40 s in data set [4] (10 mg capsule, pH 1.24, 150 mls, 37° C., stirred). Further, the “Time until powder was completely dissolved” value in data set [3] (near neutral solution pH 6.5, 37° C.) is given as “less than two minutes”; in data set [4] (simulated gastric fluid pH 1.24, 37° C.) it was “less than two minutes”. Also, the results for the Time to dissolve entry in data set [3] (pH 7) and in data set [4] (pH about 1) were “well under a minute” and “less than 10 seconds”, respectively. Also, the “Time to complete dissolution in gastric juices” value in data set [4] was “less than 1 min”; in data set [4] ('even less than'), “less than 30 seconds”. Also, the “Time until capsule shell had dissolved” value in data set [4] (setting [5]) is on record as “less than or about one minute”. Besides, the “Time until contents had completely dissolved” value in data set [4] (setting [5]) was at most 2 min. Further, the “Dissolution in stomach acid (in words)” value in data set [4] (stomach acid) is listed as “very rapidly dissolved in stomach acid without any precipitation”.
